Read-outs that look alike come from different tables or passages of the source.

The assay addresses SREBP-2 (Homo sapiens (Human), UniProt Q12772). Description: In vitro assay SREBP-2: PathHunter U2OS SREBP-2 Nuclear Translocation Cell Line, U18666A-stimulated. It counts as cell-based.
Where [1] appears, read: PathHunter U2OS SREBP-2 nuclear translocation cells, U18666A 10 μM, overnight (16 hours).

The molecule `C[C@H](CCC(=O)N1CCCC(c2ccncc2)C1)[C@H]1CC[C@H]2[C@@H]3CC=C4C[C@@H](O)CC[C@]4(C)[C@H]3CC[C@]12C` (stereo partly drawn) [Example 346, (4R)-4-((3S,8S,9S,10R,13R,14S,17R)-3-hydroxy-10,13-dimethyl-2,3,4,7,8,9,10,11,12,13,14,15,16,17-tetradecahydro-1H-cyclopenta[a]phenanthren-17-yl)-1-(3-(pyridin-4-yl)piperidin-1-yl)pentan-1-one] registered an IC50 under setting [1] below 0.25 µM.

In the case of `C[C@H](CNC(=O)N(C)C)[C@H]1CC[C@H]2[C@@H]3CC=C4C[C@@H](O)CC[C@]4(C)[C@H]3CC[C@]12C` [Example 347, 3-((S)-2-((3S,8S,9S,10R,13S,14S,17R)-3-hydroxy-10,13-dimethyl-2,3,4,7,8,9,10,11,12,13,14,15,16,17-tetradecahydro-1H-cyclopenta[a]phenanthren-17-yl)propyl)-1,1-dimethylurea], the IC50 under setting [1] was 0.25 to 1 µM.

On to `C[C@H](OCC(=O)N1CCC(C)(CO)CC1)[C@H]1CC[C@H]2[C@@H]3CC=C4C[C@@H](O)CC[C@]4(C)[C@H]3CC[C@]12C` [Example 366, 2-((S)-1-((3S,8S,9S,10R,13S,14S,17S)-3-hydroxy-10,13-dimethyl-2,3,4,7,8,9,10,11,12,13,14,15,16,17-tetradecahydro-1H-cyclopenta[a]phenanthren-17-yl)ethoxy)-1-(4-(hydroxymethyl)-4-methylpiperidin-1-yl)ethan-1-one], for which, under setting [1], the IC50 lay in the range of 0.25 to 1 µM.

Turning to `C[C@H](CC[C@](O)(C1CC1)C(F)(F)F)[C@H]1CC[C@H]2[C@@H]3CC=C4C[C@@](C)(O)CC[C@]4(C)[C@H]3CC[C@]12C` [Example 368, (3S,8S,9S,10R,13R,14S,17R)-17-((2R,5S)-5-cyclopropyl-6,6,6-trifluoro-5-hydroxyhexan-2-yl)-3,10,13-trimethyl-2,3,4,7,8,9,10,11,12,13,14,15,16,17-tetradecahydro-1H-cyclopenta[a]phenanthren-3-ol], the IC50 under setting [1] lay in the range of 0.25 to 1 µM.

Under setting [1], `CCC1(O)CCN(C(=O)CCC[C@H]2CC[C@H]3[C@@H]4CC=C5C[C@@H](O)CC[C@]5(C)[C@H]4CC[C@]23C)CC1` [Example 370, 1-(4-ethyl-4-hydroxypiperidin-1-yl)-4-((3S,8S,9S,10R,13R,14S,17S)-3-hydroxy-10,13-dimethyl-2,3,4,7,8,9,10,11,12,13,14,15,16,17-tetradecahydro-1H-cyclopenta[a]phenanthren-17-yl)butan-1-one] displayed an IC50 of 0.25 to 1 µM.

In the case of `CCC1(O)CCN(C(=O)CC[C@@H](C)[C@H]2CC[C@H]3[C@@H]4CC=C5C[C@@](C)(O)CC[C@]5(C)[C@H]4CC[C@]23C)CC1` [Example 371, (R)-1-(4-ethyl-4-hydroxypiperidin-1-yl)-4-((3S,8S,9S,10R,13R,14S,17R)-3-hydroxy-3,10,13-trimethyl-2,3,4,7,8,9,10,11,12,13,14,15,16,17-tetradecahydro-1H-cyclopenta[a]phenanthren-17-yl)pentan-1-one], under setting [1], the IC50 was 0.25 to 1 µM.

For the molecule `C[C@H](Oc1ccccn1)[C@H]1CC[C@H]2[C@@H]3CC=C4C[C@@H](O)CC[C@]4(C)[C@H]3CC[C@]12C` [Example 381, (3S,8S,9S,10R,13S,14S,17S)-10,13-dimethyl-17-((S)-1-(pyridin-2-yloxy)ethyl)-2,3,4,7,8,9,10,11,12,13,14,15,16,17-tetradecahydro-1H-cyclopenta[a]phenanthren-3-ol], the IC50 under setting [1] was 1 to 10 µM.

Under setting [1], `C[C@H](CCC(=O)N1CCN(c2ncccn2)CC1)[C@H]1CC[C@H]2[C@@H]3CC=C4C[C@@H](O)CC[C@]4(C)[C@H]3CC[C@]12C` [Example 397, (R)-4-((3S,8S,9S,10R,13R,14S,17R)-3-hydroxy-10,13-dimethyl-2,3,4,7,8,9,10,11,12,13,14,15,16,17-tetradecahydro-1H-cyclopenta[a]phenanthren-17-yl)-1-(4-(pyrimidin-2-yl)piperazin-1-yl)pentan-1-one] registered an IC50 below 0.25 µM.

On to `CC(=O)N1CCC(C(=O)N(C)CC[C@@H](C)[C@H]2CC[C@H]3[C@@H]4CC=C5C[C@@H](O)CC[C@]5(C)[C@H]4CC[C@]23C)CC1` [Example 408, 1-acetyl-N—((R)-3-((3S,8S,9S,10R,13R,14S,17R)-3-hydroxy-10,13-dimethyl-2,3,4,7,8,9,10,11,12,13,14,15,16,17-tetradecahydro-1H-cyclopenta[a]phenanthren-17-yl)butyl)-N-methylpiperidine-4-carboxamide], for which the IC50 under setting [1] was in the range of 0.25 to 1 µM.

`C[C@H](CCC(=O)N1CCC(N(C)S(C)(=O)=O)CC1)[C@H]1CC[C@H]2[C@@H]3CC=C4C[C@@H](O)CC[C@]4(C)[C@H]3CC[C@]12C` [Example 415, N-{1-[(4R)-4-[(1R,3aS,3bS,7S,9aR,9bS,11aR)-7-hydroxy-9a,11a-dimethyl-1H,2H,3H,3aH,3bH,4H,6H,7H,8H,9H,9aH,9bH,10H,11H,11aH-cyclopenta[a]phenanthren-1-yl]pentanoyl]piperidin-4-yl}-N-methylmethanesulfonamide] returned an IC50 under setting [1] of 0.25 to 1 µM.

On to `C[C@H](CCC(=O)N1CCC(OC(=O)N(C)C)CC1)[C@H]1CC[C@H]2[C@@H]3CC=C4C[C@@H](O)CC[C@]4(C)[C@H]3CC[C@]12C` [Example 418, 1-((R)-4-((3S,8S,9S,10R,13R,14S,17R)-3-hydroxy-10,13-dimethyl-2,3,4,7,8,9,10,11,12,13,14,15,16,17-tetradecahydro-1H-cyclopenta[a]phenanthren-17-yl)pentanoyl)piperidin-4-yl dimethylcarbamate], for which the IC50 under setting [1] lay in the range of 1 to 10 µM.

In the case of `COC(=O)N1CCN(C(=O)CC[C@@H](C)[C@H]2CC[C@H]3[C@@H]4CC=C5C[C@](O)(C(F)(F)F)CC[C@]5(C)[C@H]4CC[C@]23C)CC1` [Example 419, Methyl 4-((R)-4-((3S,8S,9S,10R,13R,14S,17R)-3-hydroxy-10,13-dimethyl-3-(trifluoromethyl)-2,3,4,7,8,9,10,11,12,13,14,15,16,17-tetradecahydro-1H-cyclopenta[a]phenanthren-17-yl)pentanoyl)piperazine-1-carboxylate], under setting [1], the concentration for half-maximal inhibition (IC50) lay in the range of 1 to 10 µM.

With `C[C@H](CCC(=O)N1CCN(C(=O)OC2COC2)CC1)[C@H]1CC[C@H]2[C@@H]3CC=C4C[C@@H](O)CC[C@]4(C)[C@H]3CC[C@]12C` [Example 425, oxetan-3-yl4-((R)-4-((3S,8S,9S,10R,13R,14S,17R)-3-hydroxy-10,13-dimethyl-2,3,4,7,8,9,10,11,12,13,14,15,16,17-tetradecahydro-1H-cyclopenta[a]phenanthren-17-yl)pentanoyl)piperazine-1-carboxylate], the concentration for half-maximal inhibition (IC50) is below 0.25 µM.

In the case of `Cc1ncccc1O[C@@H](C)[C@H]1CC[C@H]2[C@@H]3CC=C4C[C@@H](O)CC[C@]4(C)[C@H]3CC[C@]12C` [Example 430, (1S,3aS,3bS,7S,9aR,9bS,11aS)-9a,11a-dimethyl-1-[(1S)-1-[(2-methylpyridin-3-yl)oxy]ethyl]-1H,2H,3H,3aH,3bH,4H,6H,7H,8H,9H,9aH,9bH,10H,11H,11aH-cyclopenta[a]phenanthren-7-ol], the IC50 under setting [1] lay within 0.25 to 1 µM.

Under setting [1], `Cc1cncc(O[C@@H](C)[C@H]2CC[C@H]3[C@@H]4CC=C5C[C@@H](O)CC[C@]5(C)[C@H]4CC[C@]23C)c1` [Example 432, (3S,8S,9S,10R,13S,14S,17S)-10,13-dimethyl-17-((S)-1-((5-methylpyridin-3-yl)oxy)ethyl)-2,3,4,7,8,9,10,11,12,13,14,15,16,17-tetradecahydro-1H-cyclopenta[a]phenanthren-3-ol] returned an IC50 below 0.25 µM.

Regarding `Cc1ccncc1O[C@@H](C)[C@H]1CC[C@H]2[C@@H]3CC=C4C[C@@H](O)CC[C@]4(C)[C@H]3CC[C@]12C` [Example 433, (3S,8S,9S,10R,13S,14S,17S)-10,13-dimethyl-17-((S)-1-((4-methylpyridin-3-yl)oxy)ethyl)-2,3,4,7,8,9,10,11,12,13,14,15,16,17-tetradecahydro-1H-cyclopenta[a]phenanthren-3-ol], the IC50 under setting [1] is 0.25 to 1 µM.

In the case of `C[C@H](Oc1cccnc1CO)[C@H]1CC[C@H]2[C@@H]3CC=C4C[C@@H](O)CC[C@]4(C)[C@H]3CC[C@]12C` [Example 434, (3S,8S,9S,10R,13S,14S,17S)-17-((S)-1-((2-(hydroxymethyl)pyridin-3-yl)oxy)ethyl)-10,13-dim ethyl-2,3,4,7,8,9,10,11,12,13,14,15,16,17-tetradecahydro-1H-cyclopenta[a]phenanthren-3-ol], the IC50 under setting [1] lay in the range of 0.25 to 1 µM.

As for `C[C@H](Oc1ccc(CO)nc1)[C@H]1CC[C@H]2[C@@H]3CC=C4C[C@@H](O)CC[C@]4(C)[C@H]3CC[C@]12C` [Example 435, (3S,8S,9S,10R,13S,14S,17S)-17-((S)-1-((6-(hydroxymethyl)pyridin-3-yl)oxy)ethyl)-10,13-dim ethyl-2,3,4,7,8,9,10,11,12,13,14,15,16,17-tetradecahydro-1H-cyclopenta[a]phenanthren-3-ol], the IC50 under setting [1] was 0.25 to 1 µM.

`C[C@H](Oc1cncc(CO)c1)[C@H]1CC[C@H]2[C@@H]3CC=C4C[C@@H](O)CC[C@]4(C)[C@H]3CC[C@]12C` [Example 436, (3S,8S,9S,10R,13S,14S,17S)-17-((S)-1-((5-(hydroxymethyl)pyridin-3-yl)oxy)ethyl)-10,13-dim ethyl-2,3,4,7,8,9,10,11,12,13,14,15,16,17-tetradecahydro-1H-cyclopenta[a]phenanthren-3-ol] registered an IC50 under setting [1] of 0.25 to 1 µM.

Molecule `C[C@H](Oc1cnccc1CO)[C@H]1CC[C@H]2[C@@H]3CC=C4C[C@@H](O)CC[C@]4(C)[C@H]3CC[C@]12C` [Example 437, (3S,8S,9S,10R,13S,14S,17S)-17-((S)-1-((4-(hydroxymethyl)pyridin-3-yl)oxy)ethyl)-10,13-dim ethyl-2,3,4,7,8,9,10,11,12,13,14,15,16,17-tetradecahydro-1H-cyclopenta[a]phenanthren-3-ol] had an IC50 under setting [1] of 0.25 to 1 µM.

What is called IC50 is the point on the concentration scale where inhibition reaches its midpoint. Higher therefore signals lower potency.

These data come from US20230340011A1 (Asteroid Therapeutics, priority 2022, published 2023).
